Results from DBAASP.
≈ marks a conversion by molar mass, not a printed value.

How the values were obtained:
Assay in all cases: ≥ marks a high value that may be exact or a test limit, other limits are often not marked, values filed in µg/mL are converted to µM
[1] = system: Streptococcus agalactiae CICC 10465
[2] = system: Lacticaseibacillus rhamnosus 7469
[3] = system: Salmonella enterica subsp. enterica serovar Typhimurium C77-31
[4] = system: Pseudomonas aeruginosa ATCC 27853
[5] = system: Streptococcus thermophilus YM-C
[6] = system: Staphylococcus epidermidis ATCC 12228
Streptococcus agalactiae = system: Streptococcus agalactiae
[7] = system: Staphylococcus aureus ATCC 29213
[8] = system: Salmonella enterica subsp. enterica serovar Pullorum ATCC 7913
[9] = system: Salmonella enterica subsp. enterica serovar Typhimurium ATCC 14028
Escherichia coli UB1005 = system: Escherichia coli UB1005
Escherichia coli 078 = system: Escherichia coli 078
[10] = system: Escherichia coli ATCC 25922
[11] = system: Staphylococcus aureus ATCC 25923
Candida albicans MDM8 = system: Candida albicans MDM8
[12] = system: Serratia marcescens ATCC 4112
Micrococcus luteus A270 = system: Micrococcus luteus A270
[13] = system: Candida tropicalis IOC 4560
Escherichia coli SBS 363 = system: Escherichia coli SBS 363
[14] = system: Bacillus subtilis ATCC 6633
[15] = system: Bacillus megaterium ATCC 10778
[16] = system: Enterobacter cloacae beta-12
[17] = system: Pseudomonas aeruginosa PAO1
Candida albicans = system: Candida albicans
Escherichia coli MG1655 = system: Escherichia coli MG1655
Escherichia coli B = system: Escherichia coli B
[18] = system: Micrococcus luteus CCM 144
Pseudomonas aeruginosa = system: Pseudomonas aeruginosa
Staphylococcus aureus = system: Staphylococcus aureus
Bacillus subtilis 168 = system: Bacillus subtilis 168
[19] = system: Candida albicans F7-39/IDE99

## CC[C@H](C)[C@H](NC(=O)[C@H](CC(C)C)NC(=O)[C@@H](NC(=O)[C@@H](N)CC(=O)O)[C@@H](C)CC)C(=O)N[C@H](C(=O)N[C@H](C(=O)NCC(=O)NCC(=O)N[C@@H](CCCCN)C(=O)N[C@@H](CC(=O)O)C(=O)N[C@@H](CCCN=C(N)N)C(=O)N[C@@H](CCCCN)C(=O)N[C@@H](CCCCN)C(=O)N[C@@H](CCCN=C(N)N)C(=O)N[C@@H](CCCN=C(N)N)C(=O)N[C@@H](CCCN=C(N)N)C(N)=O)C(C)C)[C@@H](C)CC [DILIIVGGKDRKKRRR]
[1]
  MIC: 4 µM (≈ 7.69 µg/mL)
[2]
  MIC: ≥ 64 µM
[3]
  MIC: ≥ 64 µM
[4]
  MIC: > 64 µM
[5]
  MIC: ≥ 64 µM
[6]
  MIC: 4 µM (≈ 7.69 µg/mL)
Streptococcus agalactiae
  MIC: 8 µM (≈ 15.4 µg/mL)
[7]
  MIC: 4 µM (≈ 7.69 µg/mL)
[8]
  MIC: 8 µM (≈ 15.4 µg/mL)
[9]
  MIC: > 64 µM
Escherichia coli UB1005
  MIC: ≥ 32 µM
Escherichia coli 078
  MIC: ≥ 32 µM
[10]
  MIC: 8 µM (≈ 15.4 µg/mL)
[11]
  MIC: > 64 µM

## CC[C@H](C)[C@H](NC(=O)[C@H](CC(C)C)NC(=O)[C@@H](NC(=O)[C@@H](N)CC(=O)O)[C@@H](C)CC)C(=O)N[C@H](C(=O)N[C@H](C(=O)NCC(=O)NCC(=O)N[C@@H](CCCCN)C(=O)N[C@@H](CCCN=C(N)N)C(=O)N[C@@H](CCCN=C(N)N)C(=O)N[C@@H](CCCN=C(N)N)C(N)=O)C(C)C)[C@@H](C)CC [DILIIVGGKRRR]
[1]
  MIC: 8 µM (≈ 11.2 µg/mL)
[2]
  MIC: ≥ 64 µM
[3]
  MIC: ≥ 64 µM
[4]
  MIC: > 64 µM
[5]
  MIC: ≥ 64 µM
[6]
  MIC: > 64 µM
Streptococcus agalactiae
  MIC: 5.66 µM (≈ 7.89 µg/mL)
[7]
  MIC: > 64 µM
[8]
  MIC: ≥ 64 µM
[9]
  MIC: > 64 µM
Escherichia coli UB1005
  MIC: ≥ 64 µM
Escherichia coli 078
  MIC: ≥ 64 µM
[10]
  MIC: > 64 µM
[11]
  MIC: > 64 µM

## CC[C@H](C)[C@H](NC(=O)[C@H](CC(C)C)NC(=O)[C@@H](NC(=O)[C@@H](N)CC(=O)O)[C@@H](C)CC)C(=O)N[C@H](C(=O)N[C@H](C(=O)NCC(=O)NCC(=O)N[C@@H](CCCN=C(N)N)C(=O)N[C@@H](CCCN=C(N)N)C(=O)N[C@@H](CCCN=C(N)N)C(=O)N[C@@H](CCCN=C(N)N)C(=O)N[C@@H](CCCN=C(N)N)C(=O)N[C@@H](CCCN=C(N)N)C(=O)N[C@@H](CCCN=C(N)N)C(=O)N[C@@H](CCCN=C(N)N)C(N)=O)C(C)C)[C@@H](C)CC [DILIIVGGRRRRRRRR]
[1]
  MIC: 4 µM (≈ 8.19 µg/mL)
[2]
  MIC: ≥ 64 µM
[3]
  MIC: ≥ 64 µM
[4]
  MIC: 8 µM (≈ 16.4 µg/mL)
[5]
  MIC: ≥ 64 µM
[6]
  MIC: 8 µM (≈ 16.4 µg/mL)
Streptococcus agalactiae
  MIC: 5.66 µM (≈ 11.6 µg/mL)
[7]
  MIC: 2 µM (≈ 4.1 µg/mL)
[8]
  MIC: 8 µM (≈ 16.4 µg/mL)
[9]
  MIC: > 64 µM
Escherichia coli UB1005
  MIC: 8 µM (≈ 16.4 µg/mL)
Escherichia coli 078
  MIC: ≥ 32 µM
[10]
  MIC: 4 µM (≈ 8.19 µg/mL)
[11]
  MIC: 4 µM (≈ 8.19 µg/mL)

## CC(C)C[C@H](NC(=O)[C@H](C)NC(=O)CNC(=O)[C@H](CC(C)C)NC(=O)[C@@H](N)Cc1ccccc1)C(=O)N[C@@H](Cc1c[nH]c2ccccc12)C(=O)N[C@@H](CC(N)=O)C(=O)N1CCC[C@H]1C(=O)N[C@@H](C)C(=O)N[C@@H](CCCCN)C(=O)N[C@@H](CO)C(=O)N[C@H](C(=O)N[C@@H](Cc1ccccc1)C(N)=O)C(C)C [FLGALWNPAKSVF]
[4]
  MIC: > 50 µM
Candida albicans MDM8
  MIC: ≥ 50 µM
[12]
  MIC: 12.5 µM (≈ 18.1 µg/mL)
[7]
  MIC: > 50 µM
Micrococcus luteus A270
  MIC: 25 µM (≈ 36.2 µg/mL)
[13]
  MIC: ≥ 50 µM
Escherichia coli SBS 363
  MIC: ≥ 50 µM
[14]
  MIC: ≥ 50 µM
[15]
  MIC: ≥ 50 µM
[16]
  MIC: ≥ 50 µM

## CC(C)C[C@H](NC(=O)[C@H](C)NC(=O)[C@H](CCCCN)NC(=O)[C@H](CC(C)C)NC(=O)[C@@H](N)Cc1ccccc1)C(=O)N[C@@H](Cc1c[nH]c2ccccc12)C(=O)N[C@@H](CCCCN)C(=O)N[C@H](C(=O)N[C@@H](C)C(=O)N[C@@H](CCCCN)C(=O)N[C@@H](CO)C(=O)N[C@H](C(=O)N[C@@H](Cc1ccccc1)C(N)=O)C(C)C)C(C)C [FLKALWKVAKSVF]
Candida albicans MDM8
  MIC: 1.6 µM (≈ 2.46 µg/mL)
[12]
  MIC: 0.1 µM (≈ 0.154 µg/mL)
[6]
  MIC: 3.1 µM (≈ 4.76 µg/mL)
[7]
  MIC: 0.8 µM (≈ 1.23 µg/mL)
Micrococcus luteus A270
  MIC: 0.4 µM (≈ 0.614 µg/mL)
[13]
  MIC: 0.8 µM (≈ 1.23 µg/mL)
Escherichia coli SBS 363
  MIC: 1.6 µM (≈ 2.46 µg/mL)
[15]
  MIC: 0.4 µM (≈ 0.614 µg/mL)
[16]
  MIC: 3.1 µM (≈ 4.76 µg/mL)

## CSCC[C@H](NC(=O)[C@@H](NC(=O)[C@H](CCCCN)NC(=O)[C@H](Cc1cnc[nH]1)NC(=O)[C@H](CC(C)C)NC(=O)CN)C(C)C)C(=O)N[C@@H](CCCN=C(N)N)C(=O)N[C@@H](CCC(=O)O)C(=O)N[C@H](C(=O)N[C@@H](CC(C)C)C(=O)NCC(=O)N[C@@H](Cc1ccc(O)cc1)C(N)=O)C(C)C [GLHKVMREVLGY]
[17]
  MIC: > 128 µM
Candida albicans
  MIC: > 128 µM
Escherichia coli MG1655
  MIC: ≥ 128 µM
[11]
  MIC: > 128 µM

## CSCC[C@H](NC(=O)[C@@H](NC(=O)[C@H](CCCCN)NC(=O)[C@H](Cc1cnc[nH]1)NC(=O)[C@H](CC(C)C)NC(=O)CN)C(C)C)C(=O)N[C@@H](CCCN=C(N)N)C(=O)N[C@@H](CCCCN)C(=O)N[C@H](C(=O)N[C@@H](CC(C)C)C(=O)NCC(=O)N[C@@H](Cc1ccc(O)cc1)C(=O)N[C@@H](CC(C)C)C(=O)N[C@@H](CCCN=C(N)N)C(=O)N[C@@H](CC(N)=O)C(=O)N[C@H](C(=O)N[C@@H](Cc1ccc(O)cc1)C(=O)N[C@@H](CCCCN)C(N)=O)C(C)C)C(C)C [GLHKVMRKVLGYLRNVYK]
[17]
  MIC: 8 µM (≈ 17.4 µg/mL)
Candida albicans
  MIC: 8 µM (≈ 17.4 µg/mL)
Escherichia coli MG1655
  MIC: 1 µM (≈ 2.17 µg/mL)
[11]
  MIC: 8 µM (≈ 17.4 µg/mL)

## CC[C@H](C)[C@H](NC(=O)[C@H](CC(C)C)NC(=O)[C@H](CCCCN)NC(=O)[C@@H](NC(=O)[C@@H](NC(=O)[C@H](Cc1cnc[nH]1)NC(=O)[C@@H]1CCCN1C(=O)[C@H](CC(C)C)NC(=O)[C@@H](NC(=O)[C@H](CCCCN)NC(=O)[C@H](C)NC(=O)[C@H](CC(C)C)NC(=O)[C@H](CC(C)C)NC(=O)[C@H](CCCCN)NC(=O)[C@H](C)NC(=O)[C@H](CCSC)NC(=O)CN)C(C)C)C(C)C)C(C)C)C(=O)N[C@@H](CCCCN)C(=O)O [GMAKLLAKVLPHVVKLIK]
Escherichia coli B
  MIC: 1.5 µM (≈ 2.94 µg/mL)
[18]
  MIC: 0.8 µM (≈ 1.57 µg/mL)
Pseudomonas aeruginosa
  MIC: 17.5 µM (≈ 34.3 µg/mL)
Staphylococcus aureus
  MIC: 2.7 µM (≈ 5.29 µg/mL)
Bacillus subtilis 168
  MIC: 1.3 µM (≈ 2.55 µg/mL)
[19]
  MIC: 13.1 µM (≈ 25.7 µg/mL)

## NCCCC[C@H](NC(=O)[C@H](CCCCN)NC(=O)[C@H](CCCN=C(N)N)NC(=O)[C@H](CCC(=O)O)NC(=O)[C@@H](N)CCCCN)C(=O)N[C@@H](CCCN=C(N)N)C(=O)N[C@@H](CCCN=C(N)N)C(=O)N[C@@H](CCCN=C(N)N)C(N)=O [KERKKRRR]
[1]
  MIC: ≥ 64 µM
[2]
  MIC: ≥ 64 µM
[3]
  MIC: ≥ 64 µM
[4]
  MIC: > 64 µM
[5]
  MIC: ≥ 64 µM
[6]
  MIC: > 64 µM
Streptococcus agalactiae
  MIC: ≥ 64 µM
[7]
  MIC: > 64 µM
[8]
  MIC: ≥ 64 µM
[9]
  MIC: > 64 µM
Escherichia coli UB1005
  MIC: ≥ 64 µM
Escherichia coli 078
  MIC: ≥ 64 µM
[10]
  MIC: > 64 µM
[11]
  MIC: > 64 µM

## CSCC[C@H](NC(=O)[C@@H](NC(=O)[C@@H](N)CCCCN)C(C)C)C(=O)N[C@@H](CCCN=C(N)N)C(=O)N[C@@H](CCC(=O)O)C(=O)N[C@H](C(=O)N[C@@H](CC(C)C)C(=O)NCC(=O)N[C@@H](Cc1ccc(O)cc1)C(=O)N[C@@H](CCC(=O)O)C(=O)N[C@@H](CCCN=C(N)N)C(=O)N[C@@H](CC(N)=O)C(=O)N[C@@H](CO)C(=O)N[C@@H](Cc1ccc(O)cc1)C(=O)N[C@@H](CCCCN)C(N)=O)C(C)C [KVMREVLGYERNSYK]
[17]
  MIC: > 128 µM
Candida albicans
  MIC: > 128 µM
Escherichia coli MG1655
  MIC: ≥ 128 µM
[11]
  MIC: > 128 µM
